# Read-outs that look alike come from different tables or passages of the source.
# Experiments:
# OCI-LY10 = assay: CTG Cell Viability Assay - OCI-LY10; format: cell-based, human; settings: Homo sapiens, OCI-Ly10, 96 h, OCI-LY10, 4 days; read-out: CTG Cell Viability Assay - OCI-LY10: Average external-IC50
# Outline: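 Viability read by CellTiter-Glo luminescence after 4 days at 37° C under 5% CO2 with compound (top 10 μM final, 1:3 steps, 9 doses, DMSO 0.2%). Three-parameter logistic fit gave IC50.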
# IRAK4 = IRAK4 (Homo sapiens (Human), UniProt Q9NWZ3); assay: IRAK4 MSD degradation in OCI-LY10; format: cell-based
# Outline: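 Remaining IRAK4 quantified by electrochemiluminescent MSD sandwich assay with two anti-IRAK4 antibodies. Compounds were dosed as 8 concentrations in 1:3 steps from a 1 to 10 μM final top on OCI-LY10 cells, incubated 4 to 24 h at 37° C. under 5% CO2. DC50 fitted with a three-parameter logistic curve.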
# [1] = OCI-LY10, 4 hrs, MSD, read-out: IRAK4 MSD degradation in OCI-LY10 at 4 hrs: Average external-Abs DC50
# [2] = OCI-LY10, 24 hrs, MSD, read-out: IRAK4 MSD degradation in OCI-LY10 at 24 hrs: Average external-Abs DC50
# [3] = OCI-LY10, 4 hrs, read-out: IRAK4 MSD degradation in OCI-LY10 at 4 hrs: DC50
# [4] = OCI-LY10, 24 hrs, read-out: IRAK4 MSD degradation in OCI-LY10 at 24 hrs: DC50
# Sequence of IRAK4 (Q9NWZ3 whole entry): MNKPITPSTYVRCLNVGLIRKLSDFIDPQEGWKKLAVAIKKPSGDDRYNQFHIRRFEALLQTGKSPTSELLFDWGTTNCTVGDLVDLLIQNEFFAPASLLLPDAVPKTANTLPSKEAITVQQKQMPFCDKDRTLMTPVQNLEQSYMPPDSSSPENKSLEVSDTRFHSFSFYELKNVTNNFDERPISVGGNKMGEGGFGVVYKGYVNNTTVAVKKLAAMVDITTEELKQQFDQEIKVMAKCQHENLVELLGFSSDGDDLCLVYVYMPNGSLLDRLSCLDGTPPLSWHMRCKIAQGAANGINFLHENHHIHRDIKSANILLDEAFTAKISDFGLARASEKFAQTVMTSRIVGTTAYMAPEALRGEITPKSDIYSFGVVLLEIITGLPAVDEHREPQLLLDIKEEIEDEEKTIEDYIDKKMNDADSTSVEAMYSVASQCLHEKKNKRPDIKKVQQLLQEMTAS
SMILES,IC50 (OCI-LY10) [nM],DC50 (IRAK4; [1]) [nM],DC50 (IRAK4; [2]) [nM],DC50 (IRAK4; [3]) [nM],DC50 (IRAK4; [4]) [nM]
CN(Cc1ccc(-n2cc(NC(=O)c3coc(-c4ccnc(NCC5CC5)c4)n3)c(C(F)F)n2)cc1)C1CCN(Cc2cccc3c2n(C)c(=O)n3C2CCC(=O)NC2=O)CC1 (stereo not drawn) [I-389],< 50,10 to 100,10 to 100,,
CN(C(=O)c1cnn2ccc(N3CCOCC3)nc12)c1cn([C@H]2CC[C@H](CN3CCC(OCCCNc4cccc5c4C(=O)N(C4CCC(=O)NC4=O)C5=O)CC3)CC2)nc1C(F)F (stereo partly drawn) [I-501],50 to 100,,,> 1000,> 1000
CN(C[C@H]1CC[C@H](n2cc(NC(=O)c3cnn4ccc(NCC5CC5)nc34)c(C(C)(C)O)n2)CC1)C1CCN(Cc2cccc3c2n(C)c(=O)n3C2CCC(=O)NC2=O)CC1 (stereo partly drawn) [I-268],> 1000,100 to 1000,,,
O=C1CCC(N2C(=O)c3cccc(CNC4CC5(CCN(C[C@H]6CC[C@H](n7cc(NC(=O)c8cnn9ccc(N%10C[C@H]%11C[C@@H]%10CO%11)nc89)c(C(F)F)n7)CC6)CC5)C4)c3C2=O)C(=O)N1 (stereo partly drawn) [I-360],> 1000,10 to 100,,,
O=C1CCC(N2C(=O)c3cccc(NC4CC5(CCN(C[C@H]6CC[C@H](n7cc(NC(=O)c8cnn9ccc(N%10C[C@H]%11C[C@@H]%10CO%11)nc89)c(C(F)F)n7)CC6)CC5)C4)c3C2=O)C(=O)N1 (stereo partly drawn) [I-381],50 to 100,10 to 100,< 10,,
CN(C[C@H]1CC[C@H](n2cc(NC(=O)c3cnn4ccc(N5CCOCC5)nc34)c(C(F)F)n2)CC1)C1CCC(Nc2cccc3c2C(=O)N(C2CCC(=O)NC2=O)C3=O)CC1 (stereo partly drawn) [I-221],50 to 100,< 10,,,
Cn1c(=O)n(C2CCC(=O)NC2=O)c2cccc(CCCOC3CCN(C(=O)[C@H]4CC[C@H](n5cc(NC(=O)c6cnn7ccc(N8CCNCC8)nc67)c(C(F)F)n5)CC4)CC3)c21 (stereo partly drawn) [I-136],> 1000,< 10,,,
Cc1c[nH]c2ncnc(N[C@H]3CC[C@H](N4CCN(C(=O)COCCOCCOCCOCCCc5ccc6c(c5)n(C)c(=O)n6C5CCC(=O)NC5=O)CC4)CC3)c12 (stereo partly drawn) [I-26],> 1000,> 1000,> 1000,,
CN(C[C@H]1CC[C@H](n2cc(NC(=O)c3coc(-c4ccnc(NCC5CC5)c4)n3)c(C(F)F)n2)CC1)C1CCN(Cc2ccnc3c2c2ccccc2n3C2CCC(=O)NC2=O)CC1 (stereo partly drawn) [I-241],500 to 1000,10 to 100,,,
"NC(=O)c1nn([C@H]2CC[C@H](C(=O)NCCOCCOCCNc3cccc4c3C(=O)N(C3CCC(=O)NC3=O)C4=O)CC2)cc1NC(=O)c1coc(-c2ccnc(NCC(F)(F)F)c2)n1 (single isomer, unassigned) [I-13, N-(3-carbamoyl-1-((1r,4r)-4-((2-(2-(2-((2-(2,6-dioxopiperidin-3-yl)-1,3-dioxoisoindolin-4-yl)amino)ethoxy)ethoxy)ethyl)carbamoyl)cyclohexyl)-1H-pyrazol-4-yl)-2-(2-((2,2,2-trifluoroethyl)amino)pyridin-4-yl)oxazole-4-carboxamide]",> 1000,> 1000,,,
CN(CC1CCN(c2ccc3c(c2)n(C)c(=O)n3C2CCC(=O)NC2=O)CC1)C[C@H]1CC[C@H](n2cc(NC(=O)c3coc(-c4ccnc(NCC5CC5)c4)n3)c(C(F)F)n2)CC1 (stereo partly drawn) [I-236],> 1000,< 10,,,
Cn1c(=O)n(C2CCC(=O)NC2=O)c2cccc(CCN3CC4(CCN(C[C@H]5CC[C@H](n6cc(NC(=O)c7cnn8ccc(N9CCOCC9)nc78)c(C(F)F)n6)CC5)CC4)C3)c21 (stereo partly drawn) [I-183],< 50,< 10,< 10,,
CN(CCN1CCO[C@@H](CCNc2cccc3c2C(=O)N(C2CCC(=O)NC2=O)C3=O)C1)C[C@H]1CC[C@H](n2cc(NC(=O)c3coc(-c4ccnc(NCC5CC5)c4)n3)c(C(F)F)n2)CC1 (stereo partly drawn) [I-339],50 to 100,10 to 100,10 to 100,,
"CN(C[C@H]1CC[C@H](n2cc(NC(=O)c3coc(-c4ccnc(NCC5CC5)c4)n3)c(C(F)F)n2)CC1)C1CCN(Cc2cccc3c2n(C)c(=O)n3[C@@H]2CCC(=O)NC2=O)CC1 [I-309, 2-(2-((cyclopropylmethyl)amino)pyridin-4-yl)-N-(3-(difluoromethyl)-1-((1R,4r)-4-(((1-((1-((R)-2,6-dioxopiperidin-3-yl)-3-methyl-2-oxo-2,3-dihydro-1H-benzo [d]imidazol-4-yl)methyl)piperidin-4-yl)(methyl)amino)methyl)cyclohexyl)-1H-pyrazol-4-yl)oxazole-4-carboxamide]",< 50,10 to 100,,,
C=C(C)c1nn([C@H]2CC[C@H](CN(C)C3CCN(Cc4cccc5c4n(C)c(=O)n5C4CCC(=O)NC4=O)CC3)CC2)cc1NC(=O)c1cnn2ccc(NCC3CC3)nc12 (stereo partly drawn) [I-173],> 1000,100 to 1000,,,
O=C1CCC(N2C(=O)c3cccc(NCC4CCN(C[C@H]5CC[C@H](n6cc(NC(=O)c7cnn8ccc(N9CCOCC9)nc78)c(C(F)F)n6)CC5)CC4)c3C2=O)C(=O)N1 (stereo partly drawn) [I-385],< 50,> 1000,10 to 100,,
"CC[C@@H]1[C@H](F)C(=O)N[C@@H]1COc1ncc(C#CC2CCN(CCOCCNc3cccc4c3C(=O)N(C3CCC(=O)NC3=O)C4=O)CC2)c2cc(C(N)=O)c(OC)cc12 (stereo partly drawn) [I-357, 4-[2-[1-[2-[2-[[2-(2,6-dioxo-3-piperidyl)-1,3-dioxo-isoindolin-4-yl]amino]ethoxy]ethyl]-4-piperidyl]ethynyl]-1-[[(2S,3S,4S)-3-ethyl-4-fluoro-5-oxo-pyrrolidin-2-yl]methoxy]-7-methoxy-isoquinoline-6-carboxamide]",> 1000,> 1000,,,
CN(CCCc1ccc(CNc2cccc3c2C(=O)N(C2CCC(=O)NC2=O)C3=O)cc1)C[C@H]1CC[C@H](n2cc(NC(=O)c3cnn4ccc(N5C[C@H]6C[C@@H]5CO6)nc34)c(C(F)F)n2)CC1 (stereo partly drawn) [I-361],500 to 1000,> 1000,10 to 100,,
CN(C(=O)c1cnn2ccc(N3CCOCC3)nc12)c1cn([C@H]2CC[C@H](CN3CCN(Cc4ccc(COc5cccc6c5CN(C5CCC(=O)NC5=O)C6=O)cc4)CC3)CC2)nc1C(F)F (stereo partly drawn) [I-503],< 50,,,> 1000,> 1000
CC[C@@H]1[C@H](F)C(=O)N[C@@H]1COc1ncc(C#C[C@H]2CC[C@H](CN3CCC(OCCCc4ccc5c(c4)n(C)c(=O)n5C4CCC(=O)NC4=O)CC3)CC2)c2cc(C(N)=O)c(OC)cc12 (stereo partly drawn) [I-187],> 1000,> 1000,< 10,,
Cn1c(=O)n(C2CCC(=O)NC2=O)c2ccc(CCCOCCC(=O)N3CCN([C@H]4CC[C@H](Nc5ncnc6[nH]cc(C7CCOCC7)c56)CC4)CC3)cc21 (stereo partly drawn) [I-21],500 to 1000,> 1000,> 1000,,
Cc1nc2cccc(OCCCOC3CCN(C[C@H]4CC[C@H](n5cc(NC(=O)c6cnn7ccc(N8CCOCC8)nc67)c(C(F)F)n5)CC4)CC3)c2c(=O)n1C1CCC(=O)NC1=O (stereo partly drawn) [I-215],> 1000,> 1000,> 1000,,
O=C1CCC(N2Cc3c(NCCOCC4CCN(C[C@H]5CC[C@H](n6cc(NC(=O)c7cnn8ccc(N9C[C@H]%10C[C@@H]9CO%10)nc78)c(C(F)F)n6)CC5)CC4)cccc3C2=O)C(=O)N1 (stereo partly drawn) [I-374],> 1000,> 1000,10 to 100,,
CC[C@H]1C(COc2ncc(C#C[C@H]3CC[C@H](CN(C)CCN4CCO[C@H](CCNc5cccc6c5C(=O)N(C5CCC(=O)NC5=O)C6=O)C4)CC3)c3cc(C(N)=O)c(OC)cc23)NC(=O)[C@H]1F (stereo partly drawn) [I-334],100 to 500,100 to 1000,,,
O=C1CCC(N2C(=O)c3cccc(NCCCOC[C@H]4CN(C[C@H]5CC[C@H](n6cc(NC(=O)c7cnn8ccc(N9CCOCC9)nc78)c(C(F)F)n6)CC5)CCO4)c3C2=O)C(=O)N1 (stereo partly drawn) [I-332],100 to 500,100 to 1000,10 to 100,,
CN(CC1CCC(n2cc(NC(=O)c3cnn4ccc(N5C[C@H]6C[C@@H]5CO6)nc34)c(C(F)F)n2)CC1)[C@H]1C[C@H](Nc2cccc3c2C(=O)N(C2CCC(=O)NC2=O)C3=O)C1 (stereo partly drawn) [I-457],> 1000,,,100 to 1000,> 1000
"NC[C@H]1CC[C@H](n2cc(NC(=O)c3coc(-c4ccnc(NCC5CC5)c4)n3)c(C(F)F)n2)CC1 [I-312, N-[1-[4-(aminomethyl)cyclohexyl]-3-(difluoromethyl)pyrazol-4-yl]-2-[2-(cyclopropylmethylamino)-4-pyridyl]oxazole-4-carboxamide]",> 1000,> 1000,> 1000,,
Cn1c(=O)n(C2CCC(=O)NC2=O)c2ccc(CCCOC3CCN(C[C@H]4CC[C@H](n5cc(NC(=O)c6coc(-c7ccnc(NCC8CC8)c7)n6)c(C(F)F)n5)CC4)CC3)cc21 (stereo partly drawn) [I-118],> 1000,< 10,,,
O=C1CCC(N2C(=O)c3cccc(NCCCOCCCN4CCN(c5ncc(-n6cc(NC(=O)c7cnn8ccc(N9CCOCC9)nc78)c(C(F)F)n6)cn5)CC4)c3C2=O)C(=O)N1 (stereo not drawn) [I-456],< 50,,,100 to 1000,100 to 1000
Cc1nc2cccc(N(C)CCCOC3CCN(C[C@H]4CC[C@H](n5cc(NC(=O)c6cnn7ccc(N8CCOCC8)nc67)c(C(F)F)n5)CC4)CC3)c2c(=O)n1C1CCC(=O)NC1=O (stereo partly drawn) [I-214],> 1000,> 1000,> 1000,,
